This note sets out measurements from ChEMBL document CHEMBL2074073, “The organic cation transporter OCT2 mediates the uptake of beta-adrenoceptor antagonists across the apical membrane of renal LLC-PK(1) cell monolayers” (Br J Pharmacol, 2000).

The Km is the concentration of substrate that gives half-maximal velocity.

Common to all, as to format: functional, cell-based
Series [1] concerns the target T1, Solute carrier family 22 member 2 (Homo sapiens, UniProt O15244).
T1 sequence (O15244 whole entry): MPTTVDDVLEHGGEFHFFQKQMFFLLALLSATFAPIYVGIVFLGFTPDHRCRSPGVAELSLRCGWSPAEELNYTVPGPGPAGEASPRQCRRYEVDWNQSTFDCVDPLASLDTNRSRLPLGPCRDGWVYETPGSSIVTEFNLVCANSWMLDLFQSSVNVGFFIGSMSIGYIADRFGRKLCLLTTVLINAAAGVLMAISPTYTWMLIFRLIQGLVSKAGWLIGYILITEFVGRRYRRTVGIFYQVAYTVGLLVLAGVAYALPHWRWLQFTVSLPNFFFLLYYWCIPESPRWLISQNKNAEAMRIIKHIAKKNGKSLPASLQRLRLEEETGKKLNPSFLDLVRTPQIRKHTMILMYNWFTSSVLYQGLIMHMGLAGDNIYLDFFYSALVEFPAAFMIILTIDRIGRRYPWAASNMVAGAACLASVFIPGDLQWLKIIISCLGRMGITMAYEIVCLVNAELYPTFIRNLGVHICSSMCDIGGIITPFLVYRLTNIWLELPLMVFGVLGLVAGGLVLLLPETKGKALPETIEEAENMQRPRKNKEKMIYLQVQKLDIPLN
The series is described as follows: (§1) TP_TRANSPORTER: uptake in OCT2-expressing mIMCD3 cells. Particulars: mouse.

Series [2] has as its target T1, Solute carrier family 22 member 2. The series can be described thus: TP_TRANSPORTER: inhibition of cimetidine uptake (Cimetidine: 100 uM, Propranolol: 1000 uM) in OCT2-expressing mIMCD3 cells. As to conditions: mouse, mimcd3, 1000 µM.
For series [3] the target is unchanged. The series can be described thus: TP_TRANSPORTER: inhibition of cimetidine uptake (Cimetidine: 100 uM, Metoprolol: 1000 uM) in OCT2-expressing mIMCD3 cells. Particulars: mouse, mimcd3, 1000 µM.
Substrate in series [4]: C[n+]1ccc(-c2ccccc2)cc1
Described as §1.

In the case of `CC(C)NCC(O)COc1cccc2ccccc12` (stereo not given) [PROPRANOLOL], the Activity entry is “substrate [+]” in series [1] and “inhibitor [(at a rough estimate) 10 % of control]” in series [2]. Consider `COCCc1ccc(OCC(O)CNC(C)C)cc1` (stereo not given) [METOPROLOL], for which the Activity result in series [3] is “inhibitor [(at a rough estimate) 30 % of control]”. Regarding `CN/C(=N/CCSCc1nc[nH]c1C)NC#N` [CIMETIDINE], in series [1], the Activity result was “substrate [+]”.

B1: Solute carrier family 22 member 2 (Homo sapiens) (protein)
chain: MPTTVDDVLEHGGEFHFFQKQMFFLLALLSATFAPIYVGIVFLGFTPDHRCRSPGVAELSLRCGWSPAEELNYTVPGPGPAGEASPRQCRRYEVDWNQSTFDCVDPLASLDTNRSRLPLGPCRDGWVYETPGSSIVTEFNLVCANSWMLDLFQSSVNVGFFIGSMSIGYIADRFGRKLCLLTTVLINAAAGVLMAISPTYTWMLIFRLIQGLVSKAGWLIGYILITEFVGRRYRRTVGIFYQVAYTVGLLVLAGVAYALPHWRWLQFTVSLPNFFFLLYYWCIPESPRWLISQNKNAEAMRIIKHIAKKNGKSLPASLQRLRLEEETGKKLNPSFLDLVRTPQIRKHTMILMYNWFTSSVLYQGLIMHMGLAGDNIYLDFFYSALVEFPAAFMIILTIDRIGRRYPWAASNMVAGAACLASVFIPGDLQWLKIIISCLGRMGITMAYEIVCLVNAELYPTFIRNLGVHICSSMCDIGGIITPFLVYRLTNIWLELPLMVFGVLGLVAGGLVLLLPETKGKALPETIEEAENMQRPRKNKEKMIYLQVQKLDIPLN
In the case of B1, the Km in series [4] came to 22.2 µM.
